Experiments:
[1] = biological target: GST-Bcl-2 (Homo sapiens, UniProt P10415); test: TR-FRET binding assay, GST-Bcl-2 with F-Bak peptide probe; details: TR-FRET Binding Affinity, GST-Bcl-2, F-Bak peptide probe
Method in brief: (§1)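 Compounds were serially diluted in DMSO from a 50 μM starting solution (2× the starting concentration; 10% DMSO). Plates were incubated for 3 h at room temperature, and TR-FRET was read with 340/35 nm excitation and emission at 520/525 nm (F-Bak) and 495/510 nm (Tb antibody). Ki values were calculated using Wang's competitive-binding equation.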

[2] = biological target: GST-Bcl-XL (Homo sapiens, UniProt Q07817); test: TR-FRET binding assay, GST-Bcl-XL with F-Bak peptide probe; details: TR-FRET Binding Affinity, GST-Bcl-XL, F-Bak peptide probe
Method in brief: as §1

[3] = system: FL5.12/Bcl-2 cells; test: FL5.12/Bcl-2 cell viability assay under IL-3 withdrawal (CellTitre Glo); type: cell-based, murine; details: Mus musculus, IL-3 withdrawn 48 hrs, then 24 hrs with compound
Method in brief: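 Bcl-2-overexpressing murine FL5.12 transfectants underwent IL-3 removal for 48 hrs before a 24 hr compound treatment. Cell viability was quantified with CellTitre Glo.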

GST-Bcl-2, sequence (P10415 whole entry): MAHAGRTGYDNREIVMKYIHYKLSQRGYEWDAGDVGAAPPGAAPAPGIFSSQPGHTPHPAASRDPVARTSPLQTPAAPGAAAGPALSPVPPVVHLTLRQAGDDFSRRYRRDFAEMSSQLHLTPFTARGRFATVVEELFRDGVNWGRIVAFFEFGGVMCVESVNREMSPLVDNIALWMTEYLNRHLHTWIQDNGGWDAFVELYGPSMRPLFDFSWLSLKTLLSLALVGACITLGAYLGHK
GST-Bcl-XL, sequence (Q07817 whole entry): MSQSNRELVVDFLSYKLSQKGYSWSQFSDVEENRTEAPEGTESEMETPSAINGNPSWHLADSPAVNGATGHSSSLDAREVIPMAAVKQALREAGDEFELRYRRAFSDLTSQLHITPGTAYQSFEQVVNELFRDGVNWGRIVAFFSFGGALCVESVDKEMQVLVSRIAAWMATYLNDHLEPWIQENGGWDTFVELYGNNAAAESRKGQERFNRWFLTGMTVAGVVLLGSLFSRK

SMILES	Ki [1] [nM]	Ki [2] [nM]	EC50 [3] [nM]
CC1(C)CCC(CN2CCN(c3ccc(C(=O)NS(=O)(=O)c4ccc(NCC5CCOCC5)c(C(F)(F)F)c4)c(Oc4ccc5[nH]ccc5c4)c3)CC2)=C(c2ccc(Cl)cc2)C1 [Example 277, 4-(4-{[2-(4-chlorophenyl)-4,4-dimethylcyclohex-1-en-1-yl]methyl}piperazin-1-yl)-2-(1H-indol-5-yloxy)-N-{[4-[(tetrahydro-2H-pyran-4-ylmethyl)amino]-3-(trifluoromethyl)phenyl]sulfonyl}benzamide]	29.7	> 660	> 500
CC1(C)CCC(CN2CCN(c3ccc(C(=O)NS(=O)(=O)c4cnc(OCC5CCOCC5)c(Cl)c4)c(Oc4cccc5[nH]ccc45)c3)CC2)=C(c2ccc(Cl)cc2)C1 [Example 387, 4-(4-{[2-(4-chlorophenyl)-4,4-dimethylcyclohex-1-en-1-yl]methyl}piperazin-1-yl)-N-{[5-chloro-6-(tetrahydro-2H-pyran-4-ylmethoxy)pyridin-3-yl]sulfonyl}-2-(1H-indol-4-yloxy)benzamide]	0.162	280	86.5
CC(c1ccccc1-c1ccc(Cl)cc1)N1CCN(c2ccc(C(=O)NS(=O)(=O)c3ccc(NC4CCN(C)CC4)c([N+](=O)[O-])c3)c(Oc3cccc4[nH]ccc34)c2)CC1 (stereo not drawn) [Example 206, 4-{4-[1-(4′-chloro-1,1′-biphenyl-2-yl)ethyl]piperazin-1-yl}-2-(1H-indol-4-yloxy)-N-({4-[(1-methylpiperidin-4-yl)amino]-3-nitrophenyl}sulfonyl)benzamide]	0.083	> 660	5.01
CN(C)C1(CNc2ccc(S(=O)(=O)NC(=O)c3ccc(N4CCN(CC5=C(c6ccc(Cl)cc6)CC(C)(C)CC5)CC4)cc3Oc3ccc4[nH]ccc4c3)cc2[N+](=O)[O-])CCOCC1 [Example 207, 4-(4-{[2-(4-chlorophenyl)-4,4-dimethylcyclohex-1-en-1-yl]methyl}piperazin-1-yl)-N-{[4-({[4-(dimethylamino)tetrahydro-2H-pyran-4-yl]methyl}amino)-3-nitrophenyl]sulfonyl}-2-(1H-indol-5-yloxy)benzamide]	0.218	> 660	120
CC1(C)CCC(CN2CCN(c3ccc(C(=O)NS(=O)(=O)c4ccc(NCCC(F)(F)F)c([N+](=O)[O-])c4)c(Oc4cccc5[nH]ccc45)c3)CC2)=C(c2ccc(Cl)cc2)C1 [Example 323, 4-(4-{[2-(4-chlorophenyl)-4,4-dimethylcyclohex-1-en-1-yl]methyl}piperazin-1-yl)-2-(1H-indol-4-yloxy)-N-({3-nitro-4-[(3,3,3-trifluoropropyl)amino]phenyl}sulfonyl)benzamide]	0.949	> 660	92.1
CC1(C)CCC(CN2CCN(c3ccc(C(=O)NS(=O)(=O)c4ccc(NC5CCN(CCCO)CC5)c([N+](=O)[O-])c4)c(Oc4ccc5[nH]ccc5c4)c3)CC2)=C(c2ccc(Cl)cc2)C1 [Example 197, 4-(4-{[2-(4-chlorophenyl)-4,4-dimethylcyclohex-1-en-1-yl]methyl}piperazin-1-yl)-N-[(4-{[1-(3-hydroxypropyl)piperidin-4-yl]amino}-3-nitrophenyl)sulfonyl]-2-(1H-indol-5-yloxy)benzamide]	0.025	4.84	6.18
CC1(C)CCC(CN2CCN(c3ccc(C(=O)NS(=O)(=O)c4ccc(NCCC5CCOCC5)c([N+](=O)[O-])c4)c(Oc4ccc5[nH]ccc5c4)c3)CC2)=C(c2ccc(Cl)cc2)C1 [Example 291, 4-(4-{[2-(4-chlorophenyl)-4,4-dimethylcyclohex-1-en-1-yl]methyl}piperazin-1-yl)-2-(1H-indol-5-yloxy)-N-({3-nitro-4-[(2-tetrahydro-2H-pyran-4-ylethyl)amino]phenyl}sulfonyl)benzamide]	0.56	> 660	58
CC1(C)CCC(CN2CCN(c3ccc(C(=O)NS(=O)(=O)c4ccc(NCC5CCOCC5)c([N+](=O)[O-])c4)c(Oc4cccc5[nH]ncc45)c3)CC2)=C(c2ccc(Cl)cc2)C1 [Example 400, 4-(4-{[2-(4-chlorophenyl)-4,4-dimethylcyclohex-1-en-1-yl]methyl}piperazin-1-yl)-2-(1H-indazol-4-yloxy)-N-({3-nitro-4-[(tetrahydro-2H-pyran-4-ylmethyl)amino]phenyl}sulfonyl)benzamide]	< 0.01	36.4	8.47
CC1(C)CCC(CN2CCN(c3ccc(C(=O)NS(=O)(=O)c4ccc(OCC5CCOCC5)c(C(N)=O)c4)c(Oc4ccc5[nH]ccc5c4)c3)CC2)=C(c2ccc(Cl)cc2)C1 [Example 357, N-{[3-(aminocarbonyl)-4-(tetrahydro-2H-pyran-4-ylmethoxy)phenyl]sulfonyl}-4-(4-{[2-(4-chlorophenyl)-4,4-dimethylcyclohex-1-en-1-yl]methyl}piperazin-1-yl)-2-(1H-indol-5-yloxy)benzamide]	1.34	> 660	> 500
CC1(C)CCC(CN2CCN(c3ccc(C(=O)NS(=O)(=O)c4ccc(C(=O)NCC5CCOCC5)cc4)c(Oc4ccc5[nH]ccc5c4)c3)CC2)=C(c2ccc(Cl)cc2)C1 [Example 308, 4-(4-{[2-(4-chlorophenyl)-4,4-dimethylcyclohex-1-en-1-yl]methyl}piperazin-1-yl)-2-(1H-indol-5-yloxy)-N-[(4-{[(tetrahydro-2H-pyran-4-ylmethyl)amino]carbonyl}phenyl)sulfonyl]benzamide]	57.4	> 660	> 500
CC1(C)CCC(CN2CCN(c3ccc(C(=O)NS(=O)(=O)c4ccc(NCCC(F)(F)F)c([N+](=O)[O-])c4)c(Oc4ccc5[nH]ccc5c4)c3)CC2)=C(c2ccc(Cl)cc2)C1 [Example 324, 4-(4-{[2-(4-chlorophenyl)-4,4-dimethylcyclohex-1-en-1-yl]methyl}piperazin-1-yl)-2-(1H-indol-5-yloxy)-N-({3-nitro-4-[(3,3,3-trifluoropropyl)amino]phenyl}sulfonyl)benzamide]	1.48	> 660	134
C[C@H](Nc1ccc(S(=O)(=O)NC(=O)c2ccc(N3CCN(CC4=C(c5ccc(Cl)cc5)CC(C)(C)CC4)CC3)cc2Oc2ccc3[nH]ccc3c2)cc1[N+](=O)[O-])c1ccccc1 [Example 378, 4-(4-{[2-(4-chlorophenyl)-4,4-dimethylcyclohex-1-en-1-yl]methyl}piperazin-1-yl)-2-(1H-indol-5-yloxy)-N-[(3-nitro-4-{[(1S)-1-phenylethyl]amino}phenyl)sulfonyl]benzamide]	63	> 660	> 500
CN(C)CCOc1cccc(-c2ccc(Cl)cc2)c1CN1CCN(c2ccc(C(=O)NS(=O)(=O)c3ccc(NC4CCN(C5CCOCC5)CC4)c([N+](=O)[O-])c3)c(Oc3cccc4[nH]ccc34)c2)CC1 [Example 199, 4-[4-({4′-chloro-3-[2-(dimethylamino)ethoxy]-1,1′-biphenyl-2-yl}methyl)piperazin-1-yl]-2-(1H-indol-4-yloxy)-N-({3-nitro-4-[(1-tetrahydro-2H-pyran-4-ylpiperidin-4-yl)amino]phenyl}sulfonyl)benzamide]	0.014	5.23	28.5
CC1(C)CCC(CN2CCN(c3ccc(C(=O)NS(=O)(=O)c4ccc(NCCCN5CCOCC5)c(S(=O)(=O)C(F)(F)F)c4)c(Oc4ccc5[nH]ccc5c4)c3)CC2)=C(c2ccc(Cl)cc2)C1 [Example 348, 4-(4-{[2-(4-chlorophenyl)-4,4-dimethylcyclohex-1-en-1-yl]methyl}piperazin-1-yl)-2-(1H-indol-5-yloxy)-N-({4-[(3-morpholin-4-ylpropyl)amino]-3-[(trifluoromethyl)sulfonyl]phenyl}sulfonyl)benzamide]	0.302	29.3	87.2
COCCOCCSc1ccc(S(=O)(=O)NC(=O)c2ccc(N3CCN(CC4=C(c5ccc(Cl)cc5)CC(C)(C)CC4)CC3)cc2Oc2ccc3[nH]ccc3c2)cc1[N+](=O)[O-] [Example 380, 4-(4-{[2-(4-chlorophenyl)-4,4-dimethylcyclohex-1-en-1-yl]methyl}piperazin-1-yl)-2-(1H-indol-5-yloxy)-N-[(4-{[2-(2-methoxyethoxy)ethyl]thio}-3-nitrophenyl)sulfonyl]benzamide]	0.083	175	68.5
CC1(C)CCC(CN2CCN(c3ccc(C(=O)NS(=O)(=O)c4ccc(NC[C@H]5CC[C@H](O)CC5)c([N+](=O)[O-])c4)c(Oc4ccc5[nH]ccc5c4)c3)CC2)=C(c2ccc(Cl)cc2)C1 [Example 310, Trans-4-(4-{[2-(4-chlorophenyl)-4,4-dimethylcyclohex-1-en-1-yl]methyl}piperazin-1-yl)-N-[(4-{[(4-hydroxycyclohexyl)methyl]amino}-3-nitrophenyl)sulfonyl]-2-(1H-indol-5-yloxy)benzamide]	0.049	> 660	4.51
CC1(C)CCC(CN2CCN(c3ccc(C(=O)NS(=O)(=O)c4ccc(N[C@H]5CC[C@H](N6CCOCC6)CC5)c([N+](=O)[O-])c4)c(Oc4cccc5[nH]ccc45)c3)CC2)=C(c2ccc(Cl)cc2)C1 [Example 204, Trans-4-(4-{[2-(4-chlorophenyl)-4,4-dimethylcyclohex-1-en-1-yl]methyl}piperazin-1-yl)-2-(1H-indol-4-yloxy)-N-({4-[(4-morpholin-4-ylcyclohexyl)amino]-3-nitrophenyl}sulfonyl)benzamide]	0.145	42.3	27.4

From patent publication US9073855B2, “BCL-2 selective apoptosis-inducing agents for the treatment of cancer and immune diseases” (AbbVie Inc., priority 2008, dated 2015)
